Experiments:
Format in all cases: in vivo
rice (Oryza sativa) = experiment: Test B flooded paddy; details: 250 g ai/ha, Flood, 13 to 15 days, scale 0 (no effect) to 100 (complete control)
Description: (§1) At time of treatment, test pots were flooded to 3 cm above the soil surface, treated by application of test compounds directly to the paddy water, and then maintained at that water depth for the duration of the test. Treated plants and controls were maintained in a greenhouse for 13 to 15 days, after which time all species were compared to controls and visually evaluated. […] A dash (-) response means no test result.

[1] = tested on: ducksalad (Heteranthera limosa); experiment: Test B flooded paddy; details: 250 g ai/ha, Flood, 13 to 15 days, scale 0 (no effect) to 100 (complete control)
Description: as §1

[2] = tested on: sedge, umbrella (small-flower umbrella sedge, Cyperus difformis); experiment: Test B flooded paddy; details: 250 g ai/ha, Flood, 13 to 15 days, scale 0 (no effect) to 100 (complete control)
Description: as §1

[3] = tested on: barnyardgrass (Echinochloa crus-galli); experiment: Test B flooded paddy; details: 250 g ai/ha, Flood, 13 to 15 days, scale 0 (no effect) to 100 (complete control)
Description: as §1

[4] = tested on: giant foxtail (Setaria faberii); experiment: Test A postemergence; details: 0 to 100 scale
Description: (§2) Seeds of plant species selected from barnyardgrass (Echinochloa crus-galli), kochia (Kochia scoparia), ragweed (common ragweed, Ambrosia elatior), Italian ryegrass (Lolium multiflorum), large (Lg) crabgrass (Digitaria sanguinalis), giant foxtail (Setaria faberii), morningglory (Ipomoea spp.), pigweed (Amaranthus retroflexus), velvetleaf (Abutilon theophrasti), wheat (Triticum aestivum), and corn (Zea mays) were planted into a blend of loam soil and sand and treated preemergence with a directed soil spray using test chemicals formulated in a non-phytotoxic solvent mixture which included a surfactant.
(§3) At the same time, plants selected from these crop and weed species and also blackgrass (Alopecurus myosuroides), and galium (catchweed bedstraw, Galium aparine) were planted in pots containing the same blend of loam soil and sand and treated with postemergence applications of test chemicals formulated in the same manner. Plants ranged in height from 2 to 10 cm and were in the one- to two-leaf stage for the postemergence treatment. Treated plants and untreated controls were maintained in a greenhouse for approximately 10 days, after which time all treated plants were compared to untreated controls and visually evaluated for injury. Plant response ratings, summarized in Table A, are based on a 0 to 100 scale where 0 is no effect and 100 is complete control. A dash (-) response means no test result.

kochia (Kochia scoparia) [5] = experiment: Test A postemergence; details: 0 to 100 scale
Description: as §2, §3

[6] = tested on: galium (catchweed bedstraw, Galium aparine); experiment: Test A postemergence; details: 0 to 100 scale
Description: as §2, §3

[7] = tested on: Italian ryegrass (Lolium multiflorum); experiment: Test A postemergence; details: 0 to 100 scale
Description: as §2, §3

[8] = tested on: blackgrass (Alopecurus myosuroides); experiment: Test A postemergence; details: 0 to 100 scale
Description: as §2, §3

[9] = tested on: wheat (Triticum aestivum); experiment: Test A postemergence; details: 0 to 100 scale
Description: as §2, §3

corn (Zea mays) = experiment: Test A postemergence; details: 0 to 100 scale
Description: as §2, §3

[10] = tested on: pigweed (Amaranthus retroflexus); experiment: Test A postemergence; details: 0 to 100 scale
Description: as §2, §3

[11] = tested on: ragweed (common ragweed, Ambrosia elatior); experiment: Test A postemergence; details: 0 to 100 scale
Description: as §2, §3

[12] = tested on: barnyardgrass (Echinochloa crus-galli); experiment: Test A postemergence; details: 0 to 100 scale
Description: as §2, §3

[13] = tested on: giant foxtail (Setaria faberii); experiment: Test A preemergence; details: for Plant response rating, Foxtail, Giant: 0 to 100 scale; for Foxtail, Giant plant response rating: 0 to 100 scale (0 no effect, 100 complete control)
Description: as §2, §3

kochia (Kochia scoparia) [14] = experiment: Test A preemergence; details: for Plant response rating, Kochia: 0 to 100 scale; for Kochia plant response rating: 0 to 100 scale (0 no effect, 100 complete control)
Description: as §2, §3

[15] = tested on: Italian ryegrass (Lolium multiflorum); experiment: Test A preemergence; details: for Plant response rating, Ryegrass, Italian: 0 to 100 scale; for Ryegrass, Italian plant response rating: 0 to 100 scale (0 no effect, 100 complete control)
Description: as §2, §3

[16] = tested on: pigweed (Amaranthus retroflexus); experiment: Test A preemergence; details: for Plant response rating, Pigweed: 0 to 100 scale; for Pigweed plant response rating: 0 to 100 scale (0 no effect, 100 complete control)
Description: as §2, §3

[17] = tested on: ragweed (common ragweed, Ambrosia elatior); experiment: Test A preemergence; details: for Plant response rating, Ragweed: 0 to 100 scale; for Ragweed plant response rating: 0 to 100 scale (0 no effect, 100 complete control)
Description: as §2, §3

[18] = tested on: barnyardgrass (Echinochloa crus-galli); experiment: Test A preemergence; details: for Plant response rating, Barnyardgrass: 0 to 100 scale; for Barnyardgrass plant response rating: 31 g ai/ha, 0 to 100 scale (0 no effect, 100 complete control)
Description: as §2, §3

N#Cc1cccc(Oc2ncc(Cl)cn2)c1Oc1ccc(C(F)(F)F)nc1 [Compound 13]
40: Plant response rating, Pigweed ([10]; 500 g ai/ha)
10: Plant response rating, Pigweed ([10]; 125 g ai/ha)
0: Plant response rating, Rice (rice (Oryza sativa)) | Plant response rating, Ducksalad [1] | Plant response rating, Sedge, Umbrella [2] | Plant response rating, Barnyardgrass [3] | Plant response rating, Foxtail, Giant ([4]; 125 g ai/ha) | Plant response rating, Foxtail, Giant ([4]; 500 g ai/ha) | Plant response rating, Kochia (kochia (Kochia scoparia) [5]; 125 g ai/ha) | Plant response rating, Kochia (kochia (Kochia scoparia) [5]; 500 g ai/ha) | Plant response rating, Galium ([6]; 125 g ai/ha) | Plant response rating, Galium ([6]; 500 g ai/ha) | Plant response rating, Ryegrass, Italian ([7]; 125 g ai/ha) | Plant response rating, Ryegrass, Italian ([7]; 500 g ai/ha) | Plant response rating, Blackgrass ([8]; 125 g ai/ha) | Plant response rating, Blackgrass ([8]; 500 g ai/ha) | Plant response rating, Wheat ([9]; 125 g ai/ha) | Plant response rating, Wheat ([9]; 500 g ai/ha) | Plant response rating, Corn (corn (Zea mays); 125 g ai/ha) | Plant response rating, Corn (corn (Zea mays); 500 g ai/ha) | Plant response rating, Ragweed ([11]; 125 g ai/ha) | Plant response rating, Ragweed ([11]; 500 g ai/ha) | Plant response rating, Barnyardgrass ([12]; 125 g ai/ha) | Plant response rating, Barnyardgrass ([12]; 500 g ai/ha) | Plant response rating, Foxtail, Giant ([13]; 125 g ai/ha) | Plant response rating, Foxtail, Giant ([13]; 500 g ai/ha) | Plant response rating, Kochia (kochia (Kochia scoparia) [14]; 125 g ai/ha) | Plant response rating, Kochia (kochia (Kochia scoparia) [14]; 500 g ai/ha) | Plant response rating, Ryegrass, Italian ([15]; 125 g ai/ha) | Plant response rating, Ryegrass, Italian ([15]; 500 g ai/ha) | Plant response rating, Pigweed ([16]; 125 g ai/ha) | Plant response rating, Pigweed ([16]; 500 g ai/ha) | Plant response rating, Ragweed ([17]; 125 g ai/ha) | Plant response rating, Ragweed ([17]; 500 g ai/ha) | Plant response rating, Barnyardgrass ([18]; 125 g ai/ha) | Plant response rating, Barnyardgrass ([18]; 500 g ai/ha)

N#Cc1cccc(Oc2ncc(Cl)cn2)c1Oc1ccc(C(F)(F)F)cn1 [Compound 14]
0: Plant response rating, Sedge, Umbrella [2] | Plant response rating, Barnyardgrass [3] | Plant response rating, Foxtail, Giant ([4]; 31 g ai/ha) | Plant response rating, Kochia (kochia (Kochia scoparia) [5]; 31 g ai/ha) | Plant response rating, Kochia (kochia (Kochia scoparia) [5]; 125 g ai/ha) | Plant response rating, Ryegrass, Italian ([7]; 31 g ai/ha) | Plant response rating, Ryegrass, Italian ([7]; 125 g ai/ha) | Plant response rating, Blackgrass ([8]; 31 g ai/ha) | Plant response rating, Wheat ([9]; 31 g ai/ha) | Plant response rating, Wheat ([9]; 125 g ai/ha) | Plant response rating, Corn (corn (Zea mays); 31 g ai/ha) | Plant response rating, Corn (corn (Zea mays); 125 g ai/ha) | Plant response rating, Pigweed ([10]; 31 g ai/ha) | Plant response rating, Ragweed ([11]; 31 g ai/ha) | Plant response rating, Ragweed ([11]; 125 g ai/ha) | Plant response rating, Barnyardgrass ([12]; 31 g ai/ha) | Plant response rating, Barnyardgrass ([12]; 125 g ai/ha) | Foxtail, Giant plant response rating ([13]; 31 g ai/ha) | Plant response rating, Foxtail, Giant ([13]; 125 g ai/ha) | Kochia plant response rating (kochia (Kochia scoparia) [14]; 31 g ai/ha) | Plant response rating, Kochia (kochia (Kochia scoparia) [14]; 125 g ai/ha) | Ryegrass, Italian plant response rating ([15]; 31 g ai/ha) | Plant response rating, Ryegrass, Italian ([15]; 125 g ai/ha) | Ragweed plant response rating ([17]; 31 g ai/ha) | Plant response rating, Ragweed ([17]; 125 g ai/ha) | Barnyardgrass plant response rating [18] | Plant response rating, Barnyardgrass ([18]; 125 g ai/ha)
15: Plant response rating, Rice (rice (Oryza sativa))
30: Plant response rating, Ducksalad [1] | Plant response rating, Blackgrass ([8]; 125 g ai/ha)
20: Plant response rating, Foxtail, Giant ([4]; 125 g ai/ha)
40: Plant response rating, Galium ([6]; 31 g ai/ha) | Pigweed plant response rating ([16]; 31 g ai/ha)
80: Plant response rating, Pigweed ([16]; 125 g ai/ha)
50: Plant response rating, Galium ([6]; 125 g ai/ha) | Plant response rating, Pigweed ([10]; 125 g ai/ha)

N#Cc1cccc(Oc2ncc(Cl)cn2)c1Oc1ccc(C(F)(F)F)nn1 [Compound 26]
50: Plant response rating, Galium ([6]; 125 g ai/ha) | Plant response rating, Pigweed ([10]; 31 g ai/ha)
90: Pigweed plant response rating ([16]; 31 g ai/ha)
40: Plant response rating, Kochia (kochia (Kochia scoparia) [5]; 31 g ai/ha)
100: Pigweed plant response rating ([16]; 125 g ai/ha)
20: Plant response rating, Corn (corn (Zea mays); 125 g ai/ha) | Plant response rating, Barnyardgrass ([12]; 125 g ai/ha) | Foxtail, Giant plant response rating ([13]; 31 g ai/ha) | Kochia plant response rating (kochia (Kochia scoparia) [14]; 31 g ai/ha) | Ragweed plant response rating ([17]; 125 g ai/ha) | Plant response rating, Barnyardgrass ([18]; 125 g ai/ha)
80: Plant response rating, Pigweed ([10]; 125 g ai/ha)
70: Plant response rating, Ducksalad [1]
30: Plant response rating, Foxtail, Giant ([4]; 125 g ai/ha) | Plant response rating, Galium ([6]; 31 g ai/ha) | Plant response rating, Blackgrass ([8]; 125 g ai/ha) | Plant response rating, Ragweed ([11]; 31 g ai/ha) | Plant response rating, Ragweed ([11]; 125 g ai/ha) | Kochia plant response rating (kochia (Kochia scoparia) [14]; 125 g ai/ha)
10: Plant response rating, Foxtail, Giant ([4]; 31 g ai/ha) | Plant response rating, Wheat ([9]; 125 g ai/ha)
0: Plant response rating, Rice (rice (Oryza sativa)) | Plant response rating, Barnyardgrass [3] | Plant response rating, Ryegrass, Italian ([7]; 31 g ai/ha) | Plant response rating, Ryegrass, Italian ([7]; 125 g ai/ha) | Plant response rating, Blackgrass ([8]; 31 g ai/ha) | Plant response rating, Wheat ([9]; 31 g ai/ha) | Plant response rating, Corn (corn (Zea mays); 31 g ai/ha) | Plant response rating, Barnyardgrass ([12]; 31 g ai/ha) | Ryegrass, Italian plant response rating ([15]; 31 g ai/ha) | Ryegrass, Italian plant response rating ([15]; 125 g ai/ha) | Ragweed plant response rating ([17]; 31 g ai/ha) | Barnyardgrass plant response rating [18]
60: Plant response rating, Sedge, Umbrella [2] | Plant response rating, Kochia (kochia (Kochia scoparia) [5]; 125 g ai/ha) | Foxtail, Giant plant response rating ([13]; 125 g ai/ha)
